Laboratory results from publication PMC9224258, “Zinc Coordination Compounds with Benzimidazole Derivatives: Synthesis, Structure, Antimicrobial Activity and Potential Anticancer Application” (International Journal of Molecular Sciences, 2022).
≈ marks a conversion by molar mass, not a printed value. Like-named read-outs stand apart in the source and are kept apart here.

What was measured:
[1] = tested on: glioblastoma (T98G) cell line; experiment: MTT cytotoxicity assay, T98G; format: cell-based; conditions: Homo sapiens, T98G; MTT assay after 24 h incubation; read-out: IC50 ± SD, T98G
Description: (§1) The cytotoxic effect of the compounds was evaluated using glioblastoma (T98G), neuroblastoma (SK-N-AS) and lung adenocarcinoma (A549) cell lines and human normal skin fibroblasts (CCD-1059Sk). T98G and SK-N-AS cells were cultured in DMEM, high glucose; A549 cells were cultured in DMEM/F12; and CCD-1059Sk cells were cultured in MEM. All media were supplemented with 10% FBS, 100 U/mL of penicillin and […] of streptomycin (PenStrep). Cells were incubated at 37 °C in a humidified atmosphere of 5% CO2. Stock solutions were prepared by dissolving the compounds in sterile dimethyl sulfoxide (DMSO) to obtain the concentration of 50 mg/mL. The cells were seeded into 96-well sterile plates (Nunc) at a density of 1 × 10^5 cells/mL. After 24 h of incubation, the medium was removed from each well, and then cells were incubated for the next 24 h with different concentrations of the tested compounds (1–100 µg/mL) in respective medium containing 2% FBS. Cytotoxicity of the compounds was evaluated using the MTT assay, which is based on the conversion of 3-(4,5-dimethylthiazol-2-yl)-2,5-diphenyltetrazolium bromide (MTT) into dark-blue formazan crystals. Briefly, after 24 h incubation of cells with varying concentrations of the tested compounds, all culture media were removed from the plates. Cells were washed with PBS, and then 100 µL of medium containing 10% MTT solution (5 mg/mL) was added to each well. After 3 h incubation, 100 µL (per well) of 10% SDS buffer solution was added to solubilize formazan crystals. After overnight incubation, the absorbance was measured at 570 nm using a microplate reader (Epoch, BioTek Instruments). Experiments were repeated twice, and the measurements in each experiment were run in triplicate. The viability of the investigated cells was expressed as a percentage of the viability of the untreated cells, and the results were transformed into IC50 values (expressed as mean ± SD). […] The complexes were screened for antibacterial and antifungal activities by micro-dilution broth method using Mueller–Hinton broth for growth of bacteria or Mueller–Hinton broth with 2% glucose for growth of fungi. Minimal inhibitory concentrations (MICs) of the tested derivatives were evaluated for the panel of the reference microorganisms from the American Type Culture Collection (ATCC), including Gram-negative bacteria (Escherichia coli ATCC 25922, Salmonella Typhimurium ATCC14028, Klebsiella pneumoniae ATCC 13883, Pseudomonas aeruginosa ATCC 9027, Proteus mirabilis ATCC 12453), Gram-positive bacteria (Staphylococcus aureus ATCC 25923, Staphylococcus epidermidis ATCC 12228, Micrococcus luteus ATCC 10240, Enterococcus faecalis ATCC 29212, Bacillus subtilis ATCC 6633, Bacillus cereus ATCC 10876) and fungi (Candida albicans ATCC 10231, Candida parapsilosis ATCC 22019, C. glabrata ATCC 90030).

[2] = tested on: neuroblastoma (SK-N-AS) cell line; experiment: MTT cytotoxicity assay, SK-N-AS; format: cell-based, human; conditions: Homo sapiens, SK-N-AS; MTT assay after 24 h incubation; read-out: IC50 ± SD, SK-N-AS
Description: as §1

[3] = tested on: lung adenocarcinoma (A549) cell line; experiment: MTT cytotoxicity assay, A549; format: cell-based, human; conditions: Homo sapiens, A549; MTT assay after 24 h incubation; read-out: IC50 ± SD, A549
Description: as §1

[4] = tested on: human normal skin fibroblasts (CCD-1059Sk); experiment: MTT cytotoxicity assay, normal fibroblasts; format: cell-based; conditions: Homo sapiens, CCD-1059Sk; MTT assay after 24 h incubation; normal cells; read-out: IC50 ± SD, CCD-1059-Sk
Description: as §1

S. aureus ATCC 25923 = experiment: micro-dilution broth MIC; format: cell-based, Staphylococcus aureus; conditions: Staphylococcus aureus, ATCC25923
Description: as §1

[5] = tested on: S. epidermidis ATCC 12228; experiment: micro-dilution broth MIC; format: cell-based, Staphylococcus epidermidis; conditions: Staphylococcus epidermidis, ATCC12228
Description: as §1

M. luteus ATCC 10240 = experiment: micro-dilution broth MIC; format: cell-based, Micrococcus luteus; conditions: Micrococcus luteus, ATCC10240
Description: as §1

E. faecalis ATCC 29212 = experiment: micro-dilution broth MIC; format: cell-based, Enterococcus faecalis; conditions: Enterococcus faecalis, ATCC29212
Description: as §1

B. subtilis ATCC 6633 = experiment: micro-dilution broth MIC; format: cell-based, Bacillus subtilis; conditions: Bacillus subtilis, ATCC6633
Description: as §1

B. cereus ATCC 10876 = experiment: micro-dilution broth MIC; format: cell-based, Bacillus cereus; conditions: Bacillus cereus, ATCC10876
Description: as §1

[6] = tested on: S. typhimurium ATCC 14028; experiment: micro-dilution broth MIC; format: cell-based, Salmonella Typhimurium; conditions: Salmonella enterica, Gram-negative, read-out: MIC
Description: as §1

E. coli ATCC 25922 = experiment: micro-dilution broth MIC; format: cell-based, Escherichia coli; conditions: Escherichia coli, ATCC25922, Gram-negative, read-out: MIC
Description: as §1

P. mirabilis ATCC 12453 = experiment: micro-dilution broth MIC; format: cell-based, Proteus mirabilis; conditions: Proteus mirabilis, ATCC12453, Gram-negative, read-out: MIC
Description: as §1

K. pneumoniae ATCC 13883 = experiment: micro-dilution broth MIC; format: cell-based, Klebsiella pneumoniae; conditions: Klebsiella pneumoniae, ATCC13883, Gram-negative, read-out: MIC
Description: as §1

P. aeruginosa ATCC 9027 = experiment: micro-dilution broth MIC; format: cell-based, Pseudomonas aeruginosa; conditions: Pseudomonas aeruginosa, ATCC9027, Gram-negative, read-out: MIC
Description: as §1

C. glabrata ATCC 2091 = experiment: micro-dilution broth MIC; format: cell-based
C. albicans ATCC 102231 = experiment: micro-dilution broth MIC; format: cell-based, Candida albicans
Description: as §1

[7] = tested on: C. parapsilosis ATCC 22019; experiment: micro-dilution broth MIC; format: cell-based, Candida parapsilosis
Description: as §1

[8] = tested on: lung adenocarcinoma (A549) cell line; set-up: method as in earlier work; conditions: incubated for 24 h with A549 cells; ref 77 (Zhang F. et al.); cited from earlier work
[9] = S. aureus ATCC 25923, Gram-positive, read-out: MIC
[10] = S. epidermidis ATCC 12228, Gram-positive, read-out: MIC
[11] = M. luteus ATCC 10240, Gram-positive, read-out: MIC
[12] = E. faecalis ATCC 29212, Gram-positive, read-out: MIC
[13] = B. subtilis ATCC 6633, Gram-positive, read-out: MIC
[14] = B. cereus ATCC 10876, Gram-positive, read-out: MIC
[15] = Nakaseomyces glabratus, ATCC2091, yeast, read-out: MIC
[16] = Candida albicans, ATCC102231, yeast, read-out: MIC
[17] = Lodderomyces parapsilosis, ATCC22019, yeast, read-out: MIC

Row | MIC (S. aureus ATCC 25923; [9]) [µg/mL] | MIC [5, 10] [µg/mL] | MIC (M. luteus ATCC 10240; [11]) [µg/mL] | MIC (E. faecalis ATCC 29212; [12]) [µg/mL] | MIC (B. subtilis ATCC 6633; [13]) [µg/mL] | MIC (B. cereus ATCC 10876; [14]) [µg/mL] | MIC [6] [µg/mL] | MIC (E. coli ATCC 25922) [µg/mL] | MIC (P. mirabilis ATCC 12453) [µg/mL] | MIC (K. pneumoniae ATCC 13883) [µg/mL] | MIC (P. aeruginosa ATCC 9027) [µg/mL] | MIC (C. glabrata ATCC 2091; [15]) [µg/mL] | MIC (C. albicans ATCC 102231; [16]) [µg/mL] | MIC [7, 17] [µg/mL] | SMILES | IC50 [1] [µg/mL] | IC50 [2] [µg/mL] | IC50 [3] [µg/mL] | IC50 [4] [µg/mL] | further results
1 | 1000 | 1000 | 250 | 1000 | 500 | 250 | 1000 | 1000 | 1000 | > 1000 | > 1000 | > 1000 | 1000 | > 1000 | c1cnc2[nH]c(-c3ccncc3)nc2c1 [Complex L2] | 35 ± 1.44 | 81.3 ± 3.31 | 43.1 ± 2.17 | > 100 | –
2 | > 1000 | 1000 | > 1000 | 1000 | 1000 | 1000 | > 1000 | > 1000 | > 1000 | > 1000 | > 1000 | > 1000 | 500 | 1000 | Brc1cnc2[nH]c(-c3cccnc3)nc2c1 [Complex L4] | > 100 | > 100 | > 100 | > 100 | –
3 | – | – | – | – | – | – | – | – | – | – | – | – | – | – | COc1cc([C@@H]2c3cc4c(cc3[C@@H](O[C@@H]3O[C@@H]5CO[C@@H](C)O[C@H]5[C@H](O)[C@H]3O)[C@H]3COC(=O)[C@H]23)OCO4)cc(OC)c1O [Etoposide, reference compound] | > 100 | 67.8 ± 2.03 (≈ 115 µM) | > 100 | > 100 | median inhibitory concentration (IC50), A549 [8]: 115 µg/mL
4 | – | – | – | – | – | – | – | – | – | – | – | – | – | – | C[C@@H]1[C@H](O)[C@@H](C)/C=C/C=C/CC/C=C/C=C/C=C/C=C/C(O[C@H]2O[C@H](C)[C@@H](O)[C@H](N)[C@@H]2O)CC2O[C@](O)(CC(O)C(O)CCC(O)CC(O)CC(O)CC(=O)O[C@H]1C)CC(O)C2C(=O)O (some centres unmarked) [Nys, nystatin, reference compound] | – | – | – | – | MIC (C. glabrata ATCC 2091; yeast): 0.48 µg/mL (≈ 0.518 µM); MIC (C. albicans ATCC 102231; yeast): 0.24 µg/mL (≈ 0.259 µM); MIC ([7]; yeast): 0.24 µg/mL (≈ 0.259 µM)
5 | – | – | – | – | – | – | – | – | – | – | – | – | – | – | CN[C@H](CC(C)C)C(=O)N[C@H]1C(=O)N[C@@H](CC(N)=O)C(=O)N[C@H]2C(=O)N[C@H]3C(=O)N[C@H](C(=O)N[C@H](C(=O)O)c4cc(O)cc(O)c4-c4cc3ccc4O)[C@H](O)c3ccc(c(Cl)c3)Oc3cc2cc(c3O[C@@H]2O[C@H](CO)[C@@H](O)[C@H](O)[C@H]2O[C@H]2C[C@](C)(N)[C@H](O)[C@H](C)O2)Oc2ccc(cc2Cl)[C@H]1O [Van, Vancomycin, reference compound] | – | – | – | – | MIC (S. aureus ATCC 25923): 0.98 µg/mL (≈ 0.676 µM); MIC [5]: 0.98 µg/mL (≈ 0.676 µM); MIC (M. luteus ATCC 10240): 0.12 µg/mL (≈ 0.0828 µM); MIC (E. faecalis ATCC 29212): 1.95 µg/mL (≈ 1.35 µM); MIC (B. subtilis ATCC 6633): 0.24 µg/mL (≈ 0.166 µM); MIC (B. cereus ATCC 10876): 0.98 µg/mL (≈ 0.676 µM)
